According to patent publication US20180263925A1, “METHODS FOR THE TREATMENT OF ALOPECIA AREATA UTILIZING GENE MODULATION APPROACHES” (RXi Pharmaceuticals Corporation, priority 2014, published 2018):
Like-named read-outs stand apart in the source and are kept apart here.

Tests used:
alopecia areata = details: cited from earlier work
[1] = Stability of DPCP in solvents at 50° C., reverse phase HPLC on a C18 column; assay type: physicochemical
Experimental: (§1) The compatibility and solubility of DPCP was determined in both isopropyl myristate (IPM) as well as Polysorbate 80 (PS80). […] Next, the stability of DPCP in these solvents was determined. A solution of 0.4% DPCP in isopropyl myristate and a solution of 0.4% DPCP in Polysorbate 80 was placed at 50° C. for two weeks. The stability of DPCP in these solvents was determined using reverse phase HPLC on a C18 column.
For the development of a gel formulation, the stability of DPCP was determined in both Ethanol (ETOH) and Isopropanol (IPA) (0.4% DPCP solutions in each solvent was placed at 50° C. for two weeks; FIG. 2. All solutions contained 0.1% BHT). […] However, DPCP was stable in IPA. The stability of DPCP in the above solvents was determined using reverse phase HPLC on a C18 column.

[2] = Solubility of DPCP in solvents for gels and ointments; assay type: physicochemical
Experimental: as §1

CTGF mRNA = details: rat skin, cited from earlier work; for reduction of CTGF mRNA: Days 1 and 3, biopsy Day 8, vs dose matched non-targeting control

Compound | initial hair regrowth visible after (alopecia areata; alopecia areata patients, 2% sensitizing dose followed by 0.001% challenge doses) | response rates (alopecia areata; in over 25 different studies for treating AA with haptens) | stability of DPCP ([1]; 0.4% DPCP in Ethanol, 0.1% BHT, in the presence of citric acid, 50° C., two weeks) | stability of DPCP ([1]; 0.4% DPCP in Isopropanol (IPA), 0.1% BHT, 50° C., two weeks) | stability of DPCP ([1]; 0.4% DPCP in Polysorbate 80, 50° C., two weeks) | stability of DPCP ([1]; 0.4% DPCP in isopropyl myristate, 50° C., two weeks) | stability of DPCP ([1]; in PS80 with butylated hydroxytoloune (BHT)) | solubility of DPCP ([2]; in Polysorbate 80 (PS80)) | solubility of DPCP ([2]; in isopropyl myristate (IPM)) [% w/w] | reduction of CTGF mRNA (CTGF mRNA; 300 μg per intradermal injection) [%] | reduction of CTGF mRNA (CTGF mRNA; 600 μg per intradermal injection) [%] | duration of silencing of CTGF vs. non-targeting control (CTGF mRNA; following two intradermal injections)
O=c1c(-c2ccccc2)c1-c1ccccc1 [DPCP, Diphenylcyclopropenone] | 8-12 weeks | 29-78% | Some degradation | stable | some degradation | stable | reduce the amount of degradation | highly soluble | ~1.1 | – | – | –
RXI-109: CTGF-targeting sd-rxRNA consisting of sense strand SEQ ID NO:27 (TEG-Chl) and antisense strand SEQ ID NO:28 (sense GCACCUUUCUAGA; antisense UCUAGAAAGGUGCAAACAU; TEG-cholesterol on sense strand; (2)..(2) Modified with 2′Ome; (4)..(10) Modified with 2′Ome; (11)..(13) Phosphorothioate internucleotide bond; (12)..(13) Modified with 2′Ome; (13)..(13) Modified with TEG-Chl; (1)..(1) Modified with P; (1)..(1) Modified with 2′Ome; (2)..(3) Modified with 2′fluoro; (6)..(6) Modified with 2′Ome; (8)..(8) Modified with 2′Ome; (11)..(11) Modified with 2′fluoro; (13)..(13) Modified with 2′Ome; (13)..(19) Phosphorothioate internucleotide bond; (17)..(17) Modified with 2′Ome) | – | – | – | – | – | – | – | – | – | 51 | 67 | sustained for at least five days
